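GI50 = concentration required for 50% inhibition of growth. TGI denotes the concentration required for complete inhibition of growth.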
Legend:
Assay in all cases: inhibition of tumour cell growth, NCI panel, 384-well format; in the data active = GI50 below about 0.43 µM; inactive = the rest
786-0 renal = system: 786-0 renal
A498 renal = system: A498 renal
A549 NSCLC = system: A549 NSCLC
ACHN renal = system: ACHN renal
BT-549 breast = system: BT-549 breast
CAKI-1 renal = system: CAKI-1 renal
CCRF-CEM leukemia = system: CCRF-CEM leukemia
COLO 205 colon = system: COLO 205 colon
DU-145 prostate = system: DU-145 prostate
EKVX NSCLC = system: EKVX NSCLC
HCC-2998 colon = system: HCC-2998 colon
HCT-116 colon = system: HCT-116 colon
HCT-15 colon = system: HCT-15 colon
HL-60(TB) leukemia = system: HL-60(TB) leukemia
HOP-62 NSCLC = system: HOP-62 NSCLC
HOP-92 NSCLC = system: HOP-92 NSCLC
HS 578T breast = system: HS 578T breast
HT29 colon = system: HT29 colon
IGROV1 ovarian = system: IGROV1 ovarian
K-562 leukemia = system: K-562 leukemia
KM12 colon = system: KM12 colon
LOX IMVI melanoma = system: LOX IMVI melanoma
M14 melanoma = system: M14 melanoma
MALME-3M melanoma = system: MALME-3M melanoma
MCF7 breast = system: MCF7 breast
MDA-MB-231 breast = system: MDA-MB-231 breast
MDA-MB-435 melanoma = system: MDA-MB-435 melanoma
MDA-MB-468 breast = system: MDA-MB-468 breast
MOLT-4 leukemia = system: MOLT-4 leukemia
NCI-H226 lung = system: NCI-H226 lung
NCI-H23 lung = system: NCI-H23 lung
NCI-H322M lung = system: NCI-H322M lung
NCI-H460 NSCLC = system: NCI-H460 NSCLC
NCI-H522 lung = system: NCI-H522 lung
NCI/ADR-RES ovarian = system: NCI/ADR-RES ovarian
OVCAR-3 ovarian = system: OVCAR-3 ovarian
OVCAR-4 ovarian = system: OVCAR-4 ovarian
OVCAR-5 ovarian = system: OVCAR-5 ovarian
PC-3 prostate = system: PC-3 prostate
RPMI-8226 leukemia = system: RPMI-8226 leukemia
RXF 393 renal = system: RXF 393 renal
SF-268 CNS = system: SF-268 CNS
SF-295 CNS = system: SF-295 CNS
SF-539 CNS = system: SF-539 CNS
SK-MEL-2 melanoma = system: SK-MEL-2 melanoma
SK-MEL-28 melanoma = system: SK-MEL-28 melanoma
SK-MEL-5 melanoma = system: SK-MEL-5 melanoma
SK-OV-3 ovarian = system: SK-OV-3 ovarian
SN12C renal = system: SN12C renal
SNB-19 CNS = system: SNB-19 CNS
SNB-75 CNS = system: SNB-75 CNS
SR leukemia = system: SR leukemia
SW-620 colon = system: SW-620 colon
T-47D breast = system: T-47D breast
TK-10 renal = system: TK-10 renal
U251 glioblastoma = system: U251 glioblastoma
UACC-257 melanoma = system: UACC-257 melanoma
UACC-62 melanoma = system: UACC-62 melanoma
UO-31 renal = system: UO-31 renal

CC1(C)CNc2cc(NC(=O)c3cccnc3NCc3ccncc3)ccc21
42.7 µM: TGI (NCI/ADR-RES ovarian)
80.9 µM: TGI (SNB-75 CNS)
66.8 µM: TGI (HT29 colon)
66.5 µM: TGI (MALME-3M melanoma)
31.4 µM: TGI (NCI-H226 lung)
64.5 µM: TGI (ACHN renal)
24.3 µM: TGI (SR leukemia)
48.6 µM: TGI (EKVX NSCLC)
47.3 µM: TGI (T-47D breast)
29.6 µM: TGI (RXF 393 renal)
98.4 µM: TGI (MDA-MB-435 melanoma)
58.3 µM: TGI (SK-MEL-2 melanoma)
40.6 µM: TGI (OVCAR-3 ovarian)
41.6 µM: TGI (RPMI-8226 leukemia)
42.4 µM: TGI (HL-60(TB) leukemia)
85.5 µM: TGI (UO-31 renal)
44.7 µM: TGI (HCT-15 colon)
26.5 µM: TGI (MOLT-4 leukemia)
60.6 µM: TGI (OVCAR-4 ovarian)
> 100 µM: TGI (786-0 renal) | TGI (A498 renal) | TGI (A549 NSCLC) | TGI (CAKI-1 renal) | TGI (COLO 205 colon) | TGI (DU-145 prostate) | TGI (HCC-2998 colon) | TGI (HCT-116 colon) | TGI (HOP-62 NSCLC) | TGI (KM12 colon) | TGI (M14 melanoma) | TGI (MCF7 breast) | TGI (NCI-H322M lung) | TGI (NCI-H460 NSCLC) | TGI (OVCAR-5 ovarian) | TGI (PC-3 prostate) | TGI (SF-295 CNS) | TGI (SF-539 CNS) | TGI (SK-MEL-28 melanoma) | TGI (SN12C renal) | TGI (SNB-19 CNS) | TGI (SW-620 colon) | TGI (TK-10 renal) | TGI (U251 glioblastoma) | TGI (UACC-257 melanoma)
40.3 µM: TGI (IGROV1 ovarian)
61.4 µM: TGI (SK-OV-3 ovarian)
65.5 µM: TGI (BT-549 breast)
82 µM: TGI (MDA-MB-231 breast)
97.7 µM: TGI (UACC-62 melanoma)
88.9 µM: TGI (SF-268 CNS)
82.9 µM: TGI (NCI-H23 lung)
28.3 µM: TGI (SK-MEL-5 melanoma)
inactive: GI50 ([…]-0 renal) 35.8 µM | GI50 (A498 renal) 25.6 µM | GI50 (A549 NSCLC) 31.2 µM | GI50 (ACHN renal) 10.7 µM | GI50 (BT-549 breast) 26.1 µM | GI50 (CAKI-1 renal) 19.4 µM | GI50 (CCRF-CEM leukemia) 12.7 µM | GI50 (COLO 205 colon) 31.6 µM | GI50 (DU-145 prostate) 21.3 µM | GI50 (EKVX NSCLC) 17.9 µM | GI50 (HCC-2998 colon) 38 µM | GI50 (HCT-116 colon) 46.7 µM | GI50 (HCT-15 colon) 16.6 µM | GI50 (HL-60(TB) leukemia) 25.5 µM | GI50 (HOP-62 NSCLC) 70.9 µM | GI50 (HOP-92 NSCLC) 21.1 µM | GI50 (HS 578T breast) 15.8 µM | GI50 (HT29 colon) 24.6 µM | GI50 (IGROV1 ovarian) 12.5 µM | GI50 (K-562 leukemia) 12.7 µM | GI50 (KM12 colon) 38.8 µM | GI50 (LOX IMVI melanoma) 24.9 µM | GI50 (M14 melanoma) 24.9 µM | GI50 (MALME-3M melanoma) 20.1 µM | GI50 (MCF7 breast) 23.3 µM | GI50 (MDA-MB-231 breast) 24.5 µM | GI50 (MDA-MB-435 melanoma) 29.4 µM | GI50 (MDA-MB-468 breast) 9.35 µM | GI50 (MOLT-4 leukemia) 12.7 µM | GI50 (NCI-H226 lung) 9.96 µM | GI50 (NCI-H23 lung) 25.8 µM | GI50 (NCI-H322M lung) 33.4 µM | GI50 (NCI-H460 NSCLC) 25.1 µM | GI50 (NCI-H522 lung) 20.4 µM | GI50 (NCI/ADR-RES ovarian) 17.8 µM | GI50 (OVCAR-3 ovarian) 14.8 µM | GI50 (OVCAR-4 ovarian) 13.7 µM | GI50 (OVCAR-5 ovarian) 52.9 µM | GI50 (PC-3 prostate) 43.2 µM | GI50 (RPMI-8226 leukemia) 16 µM | GI50 (RXF 393 renal) 11 µM | GI50 (SF-268 CNS) 25.2 µM | GI50 (SF-295 CNS) 35.7 µM | GI50 (SF-539 CNS) 14.3 µM | GI50 (SK-MEL-2 melanoma) 39.2 µM | GI50 (SK-MEL-28 melanoma) 37.8 µM | GI50 (SK-MEL-5 melanoma) 13.1 µM | GI50 (SK-OV-3 ovarian) 18.6 µM | GI50 (SN12C renal) 30.4 µM | GI50 (SNB-19 CNS) 44.8 µM | GI50 (SNB-75 CNS) 22.1 µM | GI50 (SR leukemia) 11.4 µM | GI50 (SW-620 colon) 49.6 µM | GI50 (T-47D breast) 14.9 µM | GI50 (TK-10 renal) 14.2 µM | GI50 (U251 glioblastoma) 46 µM | GI50 (UACC-257 melanoma) 30.9 µM | GI50 (UACC-62 melanoma) 19.1 µM | GI50 (UO-31 renal) 25 µM
25.1 µM: TGI (MDA-MB-468 breast)
50.2 µM: TGI (NCI-H522 lung)
27.6 µM: TGI (CCRF-CEM leukemia)
40.5 µM: TGI (HS 578T breast)
52.5 µM: TGI (K-562 leukemia) | TGI (LOX IMVI melanoma)
83.3 µM: TGI (HOP-92 NSCLC)

From PubChem BioAssay (NCI)
